Reference: patent US7972785B2, “Biomarkers for liver fibrotic injury” (Industrial Technology Research Institute (ITRI), priority 2006, dated 2011)

What was measured:
[1] = test system: Male Sprague-Dawley rats; assay: Serum biochemical analysis in DMN-induced rat hepatic fibrosis model; assay type: in vivo; settings: DMN-treatment, mean ± SD; for PT (prothrombin time): rat blood; for ACP (acid phosphatase) / AFP (a-fetoprotein) / AKP (alkaline phosphatase) / Albumin / BUN (blood urea nitrogen) / Bilirubin (total bilirubin) / CHOL (cholesterol) / GOT (glutamic oxaloacetic transaminase) / GPT (glutamic pyruvic transaminase) / Globulin / LDH (lactate dehydrogenase): rat serum
Procedure: (§1) A rat hepatic fibrosis model was set up through the use of DMN. DMN is a potent hepatoxin that specifically targets the liver and can cause liver fibrosis. The histopathological changes resulting from DMN treatment involve the rapid deposition of collagen, the major protein of fibrosis and important to the process of cirrhosis. […] The DMN-induced liver fibrosis model was performed as described in Jezequel A. M. et al. (14). Male Sprague-Dawley rats (Slc:SD; Japan SLC, Shizuoka, Japan), weighing from 300 to 350 grams, were used in the experiments. To induce hepatic fibrosis over a six-week time course experiment, the rats were given DMN (Sigma, Saint Louis, Mo.), dissolved in normal saline, three consecutive days a week for the first three consecutive weeks at the dosage of 6.7 mg/kg per body weight by intraperitoneal injection. Injection time points are shown as inverted triangles in FIG. 1. Injections were at a much lower dosage than those used in other experiments where the dosage was 100 mg/kg/day. The higher dosage can cause toxicity in rat liver (21, 22).)
(§2) Two to seven rats at each time point were treated with either DMN or with an equal volume of normal saline without DMN as the control (26 DMN-treated rats and 24 control rats). Rats were weighed and sacrificed on days 11, 18, 25, 32, 39, and 46 (sacrifice time points are shown as triangles in FIG. 1A) respectively. These triangular time points were designated as weeks 1 through 6 (FIG. 1A).
The serum of each rat, 50 rats in total, was subjected to various biochemical examinations related to liver damages. Blood samples, collected from the animals at necropsy, were used to measure serum concentrations or activity of albumin, glutamic oxaloacetic transaminase (GOT), glutamic pyruvic transaminase (GPT), total bilirubin, alkaline phosphatase (AKP), acid phosphatases (ACP), α-fetoprotein (AFP), blood urea nitrogen (BUN), cholesterol (CHOL), lactate dehydrogenase (LDH), globulin, prothrombin time (PT) and blood platelets (PLT) using an Hitachi 747 and ACL 3000 clinical chemistry analyzer system (MYCO, Renton, Wash.). […] The thirteen serum markers identified in these experiments are the same serum markers for human liver fibrosis.

[2] = test system: rat liver; assay: Histopathological examination of DMN-induced liver damage; assay type: in vivo
Procedure: as §1, §2
Liver tissues were immediately removed after sacrifice and subject to histopathological examination. The fixed liver samples were then processed for paraffin embedding. Five micrometer (5 μm) sections were prepared for hematoxylin and eosin staining (to score necroinflammatory and fatty changes) and for Sirius red/fast green collagen staining (to score for fibrosis) (23). The fatty changes were classified as presence (+) or absence (−).
In FIG. 2A, the representative phenotypes of the DMN-induced rat liver fibrosis were characterized by scoring the four histopathological features (necrosis, inflammation, fibrosis, and fatty change) as follows: the necrosis scores were from N0 to N3 (the first panel), and the inflammation scores were from I0 to I3. The scoring system for examining the intensity of liver fibrosis was modified from the scoring system of the Hepatitis Activity Index (HAI) (29, 30). Fibrosis was divided into four scores: normal (F0), fibrous expansion of portal tracts (F1), bridging fibrosis (F2) and frequent bridging fibrosis with focal nodule formation (F3). The fatty change was scored as present (+) or absent (−), respectively (the last panel). The images of the fatty change are shown at 200× magnification, whereas the others are shown at 100× magnification (FIG. 2A).
The results were ranked by time course. The necroinflammatory scores were the sum of the necrosis and inflammation scores and range from A0 to A6. The necroinflammatory change was divided into three grades: A0=none, A(1-3)=mild and A(4-6)=moderate necroinflammation. The fibrosis change was divided into two grades: F(0-1)=normal to fibrous expansion of portal tracts, F(2-3)=bridge fibrosis to frequent bridging fibrosis with nodule formation. The fatty change was shown as presence (+) or absence (−). The number of rats was counted and used to calculate the percentage of each histopathological level at each time point.

CN(C)N=O [DMN, Dimethylnitrosamine]
PT (prothrombin time) ([1]; 1-2 wk): 18 ± 4 (8) sec
PT (prothrombin time) ([1]; 3-4 wk): 20 ± 4 (9) sec
PT (prothrombin time) ([1]; 5-6 wk): 22 ± 5 (6) sec
ACP (acid phosphatase) ([1]; 1-2 wk): 1.9 ± 0.6 (4) mg/dl
AFP (a-fetoprotein) ([1]; 1-2 wk): 0.40 ± 0.19 (4) ng/dl
AKP (alkaline phosphatase) ([1]; 1-2 wk): 600.8 ± 93.0 (4) KA
Albumin ([1]; 1-2 wk): 3.9 ± 0.7 (7) g/dl
BUN (blood urea nitrogen) ([1]; 1-2 wk): 33 ± 4 (4) mg/dl
Bilirubin (total bilirubin) ([1]; 1-2 wk): 0.72 ± 0.53 (8) mg/dl
CHOL (cholesterol) ([1]; 1-2 wk): 77 ± 8 (4) mg/dl
GOT (glutamic oxaloacetic transaminase) ([1]; 1-2 wk): 661.5 ± 134.4 (8) U/l
GPT (glutamic pyruvic transaminase) ([1]; 1-2 wk): 459.5 ± 78.5 (8) U/l
Globulin ([1]; 1-2 wk): 6.7 ± 0.1 (2) g/dl
LDH (lactate dehydrogenase) ([1]; 1-2 wk): 414.8 ± 102.7 (4) IU/l
ACP (acid phosphatase) ([1]; 3-4 wk): 6.2 ± 1.1 (4) mg/dl
AFP (a-fetoprotein) ([1]; 3-4 wk): 0.38 ± 0.05 (4) ng/dl
AKP (alkaline phosphatase) ([1]; 3-4 wk): 668.3 ± 222.0 (3) KA
Albumin ([1]; 3-4 wk): 3.5 ± 0.6 (11) g/dl
BUN (blood urea nitrogen) ([1]; 3-4 wk): 36 ± 2 (4) mg/dl
Bilirubin (total bilirubin) ([1]; 3-4 wk): 1.01 ± 0.74 (11) mg/dl
CHOL (cholesterol) ([1]; 3-4 wk): 70 ± 13 (6) mg/dl
GOT (glutamic oxaloacetic transaminase) ([1]; 3-4 wk): 1006.1 ± 749.6 (11) U/l
GPT (glutamic pyruvic transaminase) ([1]; 3-4 wk): 566.6 ± 313.5 (11) U/l
Globulin ([1]; 3-4 wk): 5.0 ± 0.8 (4) g/dl
LDH (lactate dehydrogenase) ([1]; 3-4 wk): 562.0 ± 120.8 (3) IU/l
ACP (acid phosphatase) ([1]; 5-6 wk): 8.2 ± 0.6 (2) mg/dl
AFP (a-fetoprotein) ([1]; 5-6 wk): 0.35 ± 0.07 (2) ng/dl
AKP (alkaline phosphatase) ([1]; 5-6 wk): 468 ± 12.7 (2) KA
Albumin ([1]; 5-6 wk): 3.2 ± 0.1 (7) g/dl
BUN (blood urea nitrogen) ([1]; 5-6 wk): 31 ± 5 (2) mg/dl
Bilirubin (total bilirubin) ([1]; 5-6 wk): 1.13 ± 1.00 (7) mg/dl
CHOL (cholesterol) ([1]; 5-6 wk): 67 ± 18 (5) mg/dl
GOT (glutamic oxaloacetic transaminase) ([1]; 5-6 wk): 1572.9 ± 965.3 (7) U/l
GPT (glutamic pyruvic transaminase) ([1]; 5-6 wk): 763.6 ± 405.2 (7) U/l
Globulin ([1]; 5-6 wk): 3.6 ± 0.3 (2) g/dl
LDH (lactate dehydrogenase) ([1]; 5-6 wk): 853.5 ± 91.2 (2) IU/l
abnormality in the kidney or spleen ([2]; DMN-treated rats, data not shown): no clear abnormality
DMN-treated rats with none (F0) or low levels of fibrosis (F1) ([2]; first two weeks, 6.7 mg/kg i.p.): seventy-five
DMN-treated rats with F2 and F3 fibrosis ([2]; last two weeks): 78%
treated rats with fatty changes present ([2]; six-week time course): 3.7%
DMN-treated rats with high levels of fibrosis (F2 to F3) ([2]; third to fourth week): ~90%
